Results reported in ChEMBL document CHEMBL5030558, “Optimization and Evaluation of Novel Antifungal Agents for the Treatment of Fungal Infection” (J Med Chem, 2021).
Activity calls are given as the source filed them. The rule behind the calls is not given here.

What was measured:
Cryptococcus neoformans [1] = test: Induction of morphological changes in Cryptococcus neoformans H99 assessed as reduction in capsule thickness at 4 ug/ml incubated for 24 hrs by TEM analysis; type: functional, organism-based; settings: dose 4.0 µg/ml
Candida albicans [2] = test: In vivo antifungal activity against Candida albicans 90028 infected in BALB/c mouse assessed as reduction in size of inflammation measured upto 48 hrs post infection; type: functional, organism-based; settings: time hrs <=48
[3] = Stability in human plasma assessed as parent compound remaining after 30 to 120 mins; type: ADME, cell-free; settings: time 30-120 min
[4] = Effect on cell wall integrity in Cryptococcus neoformans H99 assessed as increase in HXL1 activation ratio at 4 ug/ml after 2 hrs by immunoblot analysis (reference value: 1); type: functional; settings: dose 4 µg/ml
Aspergillus fumigatus = test: Synergistic antifungal activity against Aspergillus fumigatus AF293 assessed as FICI in presence of ICZ after 48 hrs by checker board assay; type: functional, organism-based
Cryptococcus neoformans [5] = test: Induction of morphological changes in Cryptococcus neoformans H99 assessed as reduction in cell wall thickness at 4 to 8 ug/ml incubated for 24 hrs by TEM analysis; type: functional, organism-based; settings: dose 4-8 µg/ml
Nakaseomyces glabratus [6] = test: Induction of drug resistant in Candida glabrata BG2 assessed as increase in compound IC50 at 8 to 12 times MIC; type: functional, organism-based
Candida albicans [7] = test: Antifungal activity against Candida albicans ATCC SC5314 assessed as reduction in fungal growth incubated for 48 hrs by CLSI based broth microdilution method; type: functional
[Candida] auris [8] = Additive antifungal activity against Candida auris B8841 assessed as assessed as FICI in presence of CSP after 48 hrs by checker board assay; type: functional, organism-based; settings: Candidozyma auris
[9] = Effect on cell wall integrity in Cryptococcus neoformans H99 assessed as increase in HXL1 activation ratio at 8 ug/ml after 2 hrs by immunoblot analysis (reference value: 1); type: functional; settings: dose 8 µg/ml
Nakaseomyces glabratus [10] = test: Synergistic antifungal activity against Candida glabrata BG2 assessed as FICI in presence of ICZ after 48 hrs by checker board assay; type: functional, organism-based
[11] = molecular target: Voltage-gated inwardly rectifying potassium channel KCNH2 (Homo sapiens, UniProt Q12809); test: Inhibition of human ERG by patch clamp assay
Candida albicans [12] = test: Induction of drug resistant in Candida albicans ATCC SC5314 assessed as increase in compound IC50 at 8 to 12 times MIC; type: functional, organism-based
Cryptococcus neoformans [13] = test: Induction of morphological changes in Cryptococcus neoformans H99 assessed as cell wall damage at 4 to 8 ug/ml incubated for 24 hrs by TEM analysis; type: functional, organism-based; settings: dose 4-8 µg/ml
Nakaseomyces glabratus [14] = test: Antifungal activity against Candida glabrata BG2 assessed as reduction in fungal growth incubated for 48 hrs by CLSI based broth microdilution method; type: functional
[Candida] auris [15] = Synergistic antifungal activity against Candida auris B8841 assessed as FICI in presence of AmB after 48 hrs by checker board assay; type: functional, organism-based; settings: Candidozyma auris
Cryptococcus neoformans [16] = test: Synergistic antifungal activity against Cryptococcus neoformans XW252 in presence of FK506 by checkboard assay; type: functional, organism-based
[17] = Effective permeability by PAMPA method; type: ADME; settings: read-out: Peff
[18] = Cmax in Sprague-Dawley rat at 2 mg/kg, iv; type: ADME, organism-based; design: route intravenous, dose 2 mg/kg; settings: in vivo
CYP1A2 = molecular target: T1, CYP1A2 (Homo sapiens, UniProt P05177); test: Inhibition of CYP1A2 (unknown origin) relative to control; type: ADME
T1 sequence (P05177 whole entry): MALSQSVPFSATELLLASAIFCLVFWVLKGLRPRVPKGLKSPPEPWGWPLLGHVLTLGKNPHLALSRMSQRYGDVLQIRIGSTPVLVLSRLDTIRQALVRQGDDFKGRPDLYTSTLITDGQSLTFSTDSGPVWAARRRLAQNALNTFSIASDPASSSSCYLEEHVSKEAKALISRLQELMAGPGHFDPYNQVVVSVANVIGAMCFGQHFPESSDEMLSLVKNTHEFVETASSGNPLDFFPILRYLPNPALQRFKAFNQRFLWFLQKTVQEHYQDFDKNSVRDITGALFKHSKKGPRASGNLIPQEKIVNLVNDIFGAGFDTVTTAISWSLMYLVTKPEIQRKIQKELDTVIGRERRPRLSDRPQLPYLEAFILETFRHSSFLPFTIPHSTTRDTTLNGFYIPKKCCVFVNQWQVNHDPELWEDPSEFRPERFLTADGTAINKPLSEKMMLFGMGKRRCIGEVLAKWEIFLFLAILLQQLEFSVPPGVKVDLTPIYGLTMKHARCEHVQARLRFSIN

[19] = Stability in rat liver microsomes assessed as parent compound remaining after 30 mins; type: ADME, Microsome; settings: liver microsomes, read-out: Stability
HEK293 = test: Cytotoxicity against human HEK293 cells upto 12.5 uM incubated for 24 hrs; type: cell-based; settings: hek293, 24 h
[20] = Stability in dog hepatocytes assessed as parent compound remaining incubated for 60 mins; type: ADME, cell-based, Canis lupus familiaris, Hepatocyte; settings: read-out: Stability
Trichophyton rubrum [21] = test: Ex vivo antifungal activity against Trichophyton rubrum KCCM60450 infected in human nail assessed as reduction in ATP level at 1 % w/w after 24 hrs; type: functional; design: scale not given: the % may be the effect or the level left
HaCaT = test: Cytotoxicity against human HaCaT cells upto 12.5 uM incubated for 24 hrs; type: cell-based
Cryptococcus neoformans [22] = test: Fungicidal activity against Cryptococcus neoformans H99 at 2 times of MIC after 12 hrs by time-kill kinetics assay; type: functional, organism-based
Trichophyton rubrum [23] = test: Ex vivo antifungal activity against Trichophyton rubrum KCCM60450 infected in human nail assessed as reduction in ATP level at 0.1 % w/w after 24 hrs; type: functional; design: scale not given: the % may be the effect or the level left
[24] = Stability in rabbit hepatocytes assessed as parent compound remaining incubated for 60 mins; type: ADME, cell-based, Oryctolagus cuniculus, Hepatocyte; settings: read-out: Stability
Candida albicans [25] = test: Synergistic antifungal activity against Candida albicans ATCC SC5314 assessed as FICI in presence of ICZ after 48 hrs by checker board assay; type: functional, organism-based
Cryptococcus neoformans [26] = test: Additive antifungal activity against Cryptococcus neoformans H99 assessed as FICI in presence of FCZ after 48 hrs by checker board assay; type: functional, organism-based
Nakaseomyces glabratus [27] = test: Additive antifungal activity against Candida glabrata BG2 assessed as assessed as FICI in presence of CSP after 48 hrs by checker board assay; type: functional, organism-based
Cryptococcus neoformans [28] = test: Effect on cell wall integrity in Cryptococcus neoformans XW252 cotransfected with mCherry-Nop1-Gfp mutant assessed as increase in nuclear translocation of Crz1 at 8 ug/ml after 90 mins by fluorescence microscopic analysis; type: functional; settings: dose 8.0 µg/ml

Voltage-gated inwardly rectifying potassium channel KCNH2, sequence (Q12809 whole entry): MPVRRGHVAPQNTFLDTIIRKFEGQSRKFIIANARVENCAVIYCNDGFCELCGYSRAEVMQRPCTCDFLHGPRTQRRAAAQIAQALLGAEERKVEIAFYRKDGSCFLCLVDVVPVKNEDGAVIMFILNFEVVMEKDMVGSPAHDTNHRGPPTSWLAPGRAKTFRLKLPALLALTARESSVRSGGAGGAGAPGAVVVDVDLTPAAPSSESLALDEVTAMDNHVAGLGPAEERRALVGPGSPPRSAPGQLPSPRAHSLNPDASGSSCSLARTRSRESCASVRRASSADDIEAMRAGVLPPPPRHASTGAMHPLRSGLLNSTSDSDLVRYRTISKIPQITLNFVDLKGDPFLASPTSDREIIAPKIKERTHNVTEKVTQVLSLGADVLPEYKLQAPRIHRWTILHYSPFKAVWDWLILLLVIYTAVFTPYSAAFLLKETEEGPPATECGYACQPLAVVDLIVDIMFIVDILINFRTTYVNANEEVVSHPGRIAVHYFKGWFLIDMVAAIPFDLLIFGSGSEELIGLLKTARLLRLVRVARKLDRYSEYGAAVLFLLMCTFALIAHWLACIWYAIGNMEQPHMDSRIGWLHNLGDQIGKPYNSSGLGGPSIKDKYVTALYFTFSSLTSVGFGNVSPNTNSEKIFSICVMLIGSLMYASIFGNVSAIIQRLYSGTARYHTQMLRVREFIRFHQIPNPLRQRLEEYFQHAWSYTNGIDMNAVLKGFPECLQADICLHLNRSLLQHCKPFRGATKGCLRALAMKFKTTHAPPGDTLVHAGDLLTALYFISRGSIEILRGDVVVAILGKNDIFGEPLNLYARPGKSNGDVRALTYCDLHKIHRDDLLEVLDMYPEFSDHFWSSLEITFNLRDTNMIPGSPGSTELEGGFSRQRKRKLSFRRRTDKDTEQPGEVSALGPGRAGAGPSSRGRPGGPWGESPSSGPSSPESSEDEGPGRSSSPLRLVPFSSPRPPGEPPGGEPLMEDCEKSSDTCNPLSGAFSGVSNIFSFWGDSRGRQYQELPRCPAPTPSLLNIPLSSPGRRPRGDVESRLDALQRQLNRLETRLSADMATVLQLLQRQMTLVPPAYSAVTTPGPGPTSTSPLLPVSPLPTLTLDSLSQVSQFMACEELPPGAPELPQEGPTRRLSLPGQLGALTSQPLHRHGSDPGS

In the case of `CCCC(N)C(=O)NCCc1ccc(-c2ccc(Cl)c(Cl)c2)cc1.Cl` (racemic), the Activity (Cryptococcus neoformans [1]) is reported as “Active”, the Activity (Candida albicans [2]) is reported as “Active” and the Stability [3] is reported as 97%. The Ratio [4] was 1.12, the Activity (Aspergillus fumigatus) was “Active” and the Activity (Cryptococcus neoformans [5]) was “Active”. For the same compound, the Activity (Nakaseomyces glabratus [6]) was “inactive”, the MIC (Candida albicans [7]) was 2 µg/mL and the Activity ([Candida] auris [8]) was “Active”. For the same compound, the Ratio [9] was 1.57, the Activity (Nakaseomyces glabratus [10]) was “inactive” and the IC50 [11] was 39.5 µM. The Activity (Candida albicans [12]) was “inactive”, the Activity (Cryptococcus neoformans [13]) was “Active” and the MIC (Nakaseomyces glabratus [14]) was 4 µg/mL. For the same compound, the Activity ([Candida] auris [15]) was “Active”, the Activity (Cryptococcus neoformans [16]) was “Active” and the Papp [17] was 58.9 ×10⁻⁶ cm/s. The Cmax [18] was 190 ng/mL, the inhibition at 10 µM (CYP1A2) was 81.1% and the remaining at 0.5 h [19] was 72.3%. The Activity (HEK293) was “Non-Toxic”, the remaining at 1 h [20] was 61.1% and the Activity (Trichophyton rubrum [21]) was 24.68%. For the same compound, the Activity (HaCaT) was “Non-Toxic”, the Activity (Cryptococcus neoformans [22]) was “Active” and the Activity (Trichophyton rubrum [23]) was 73.02%. For the same compound, the remaining at 1 h [24] was 64.6%, the Activity (Candida albicans [25]) was “inactive” and the Activity (Cryptococcus neoformans [26]) was “Active”. For the same compound, the Activity (Nakaseomyces glabratus [27]) was “Active” and the Activity (Cryptococcus neoformans [28]) was “Active”.
